Source: ChEMBL document CHEMBL5625204, “Synthesis and pharmacodynamic evaluation of naphthalene derivatives against influenza A virus in vitro and in vivo” (Eur J Med Chem, 2023)
Activity calls are given as the source filed them. The calls are words filed in the database; no cut-off is given here.

How the values were obtained:
Influenza A virus [1] = assay: Antiviral activity against Influenza A virus H1N1 (A/Weiss/43)-infected in BALB/c mouse assessed as reduction in OAS1 gene expression in lungs at 25 to 100 mg/kg/day administered intranasally for 6 days starting from 3 hrs post-viral infection by qRT-PCR analysis; type: functional, organism-based; details: dose 25-100 mg/kg/day, route nas, time 6.0 day
MDCK = assay: Cytotoxicity against dog MDCK cells assessed as cell pathological changes at 50 uM by microscopic analysis; type: toxicity, cell-based, Canis lupus familiaris
Influenza A virus [2] = assay: Antiviral activity against Influenza A virus H1N1 infected in human A549 cells assessed as decrease in RIG-1 pathway related gene expression by measuring decrease in MAVS gene expression at 25 to 50 uM measured after 24 hrs by qRT-PCR analysis; type: functional, organism-based; details: dose 25-50 µM
Influenza A virus [3] = assay: (§1) Antiviral activity against Influenza A virus H1N1 (A/Weiss/43)-infected in dog MDCK cells assessed as reduction in oxidative stress by measuring proportion of cells with excessive ROS accumulation at 25 uM treated at 2 hrs post-infection and measured after 36 hrs by DCFH-DA staining based flow cytometry (reference value: 30.6%); type: functional; design: scale not given: the % may be the effect or the level left
Influenza A virus [4] = assay: as §1, with “of normal” for “of”, “cells” for “cells with excessive ROS accumulation”, “50” for “25”, “69.4%)” for “30.6%)”; type: functional; design: scale not given: the % may be the effect or the level left
Influenza A virus [5] = assay: Antiviral activity against Influenza A virus H1N1 infected in dog MDCK cells assessed as decrease in apoptosis by measuring proportion of viable cells at 25 uM measured after 72 hrs by AnnexinV-FITC/PI staining based flow cytometry (reference value: 62.9%); type: functional
Influenza A virus [6] = assay: Antiviral activity against Influenza A virus H1N1 infected in human A549 cells assessed as decrease in apoptosis by measuring decrease in Bax to Bcl-2 ratio at 25 to 50 uM measured after 24 hrs by western blot analysis; type: functional, organism-based; details: dose 25-50 µM
Influenza A virus [7] = assay: Antiviral activity against Influenza A virus H1N1 infected in human A549 cells assessed as decrease in cytokine gene expression by measuring decrease in IL-1 beta gene expression at 25 to 50 uM measured after 24 hrs by qRT-PCR analysis; type: functional, organism-based; details: dose 25-50 µM
Influenza A virus [8] = assay: Antiviral activity against Influenza A virus H1N1 (A/Weiss/43)-infected in BALB/c mouse assessed as reduction in Mx1 gene expression in lungs at 25 to 100 mg/kg/day administered intranasally for 6 days starting from 3 hrs post-viral infection by qRT-PCR analysis; type: functional, organism-based; details: dose 25-100 mg/kg/day, route nas, time 6.0 day
Influenza A virus [9] = assay: Antiviral activity against Influenza A virus H1N1 infected in dog MDCK cells assessed as decrease in apoptosis by measuring proportion of viable cells at 50 uM measured after 72 hrs by AnnexinV-FITC/PI staining based flow cytometry (reference value: 62.9%); type: functional
Influenza A virus [10] = assay: Antiviral activity against Influenza A virus H1N1 infected in dog MDCK cells assessed as decrease in apoptosis by measuring proportion of late apoptotic cells at 25 uM measured after 72 hrs by AnnexinV-FITC/PI staining based flow cytometry (reference value: 10.3%); type: functional; design: scale not given: the % may be the effect or the level left
Influenza A virus [11] = assay: Antiviral activity against Influenza A virus H1N1 (A/Virginia/ATCC2/2009) infected in MDCK cells assessed as reduction of viral replication incubated for 72 hrs by TCID50 method; type: functional, organism-based
Influenza A virus [12] = assay: Antiviral activity against Influenza A virus H1N1 infected in dog MDCK cells assessed as decrease in apoptosis by measuring proportion of necrotic cells at 25 uM measured after 72 hrs by AnnexinV-FITC/PI staining based flow cytometry (reference value: 2.47%); type: functional; design: scale not given: the % may be the effect or the level left
Influenza A virus [13] = assay: Inhibition of Influenza A virus replication infected in dog MDCK cells assessed as downregulation of virus M2 protein expression by measuring decrease in green fluorescence intensity at 25 to 50 uM measured after 24 hrs by immunofluorescence analysis; type: functional, organism-based; details: dose 25-50 µM
Influenza A virus [14] = assay: Antiviral activity against Influenza A virus H1N1 infected in human A549 cells assessed as decrease in apoptosis by measuring decrease in cleaved caspase-9 protein expression at 25 to 50 uM measured after 24 hrs by western blot analysis; type: functional, organism-based; details: dose 25-50 µM
Influenza A virus [15] = assay: Antiviral activity against Influenza A virus H1N1 (A/Weiss/43) infected in MDCK cells assessed as reduction of viral replication treated for 72 hrs after viral adsorption by TCID50 method; type: functional, organism-based
Influenza A virus [16] = assay: as §1, with “of normal” for “of”, “cells” for “cells with excessive ROS accumulation”, “69.4%)” for “30.6%)”; type: functional; design: scale not given: the % may be the effect or the level left
Influenza A virus [17] = assay: Antiviral activity against Influenza A virus H1N1 (A/Weiss/43)-infected in BALB/c mouse assessed as reduction in RIG-1 gene expression in lungs at 25 to 100 mg/kg/day administered intranasally for 6 days starting from 3 hrs post-viral infection by qRT-PCR analysis; type: functional, organism-based; details: dose 25-100 mg/kg/day, route nas, time 6.0 day
Influenza A virus [18] = assay: Antiviral activity against Influenza A virus H1N1 (A/Weiss/43) infected in MDCK cells assessed as reduction of viral replication treated for 2 hrs during viral adsorption and measured after 72 hrs by TCID50 method; type: functional, organism-based
Influenza A virus [19] = assay: Antiviral activity against Influenza A virus H1N1 (A/Weiss/43)-infected in BALB/c mouse assessed as reduction in lung index at 50 mg/kg/day administered intranasally for 6 days starting from 3 hrs post-viral infection; type: functional; details: 144 h, route nas, time 6 day
Influenza A virus [20] = assay: Antiviral activity against Influenza A virus H1N1 (A/Weiss/43)-infected in BALB/c mouse assessed as reduction in MyD88 gene expression in lungs at 25 to 100 mg/kg/day administered intranasally for 6 days starting from 3 hrs post-viral infection by qRT-PCR analysis; type: functional, organism-based; details: dose 25-100 mg/kg/day, route nas, time 6.0 day
Influenza A virus [21] = assay: Antiviral activity against Influenza A virus H1N1 infected in dog MDCK cells assessed as decrease in apoptosis by measuring proportion of late apoptotic cells at 50 uM measured after 72 hrs by AnnexinV-FITC/PI staining based flow cytometry (reference value: 10.3%); type: functional; design: scale not given: the % may be the effect or the level left
Influenza A virus [22] = assay: Antiviral activity against Influenza A virus H1N1 infected in human A549 cells assessed as decrease in incompleted autophagy by measuring increase in p62 protein expression at 25 to 50 uM measured after 24 hrs by western blot analysis; type: functional, organism-based; details: dose 25-50 µM
Influenza A virus [23] = assay: Antiviral activity against Influenza A virus H1N1 (A/Weiss/43)-infected in BALB/c mouse assessed as reduction in TNF-alpha gene expression in lungs at 25 to 100 mg/kg/day administered intranasally for 6 days starting from 3 hrs post-viral infection by qRT-PCR analysis; type: functional, organism-based; details: dose 25-100 mg/kg/day, route nas, time 6.0 day
Influenza A virus [24] = assay: Antiviral activity against Influenza A virus H1N1 (A/Weiss/43)-infected in BALB/c mouse assessed as reduction in lung index at 25 mg/kg/day administered intranasally for 6 days starting from 3 hrs post-viral infection; type: functional; details: 144 h, route nas, time 6 day
[25] = Toxicity in dog MDCK cells assessed as ROS production by measuring proportion of normal cells at 50 uM measured after 36 hrs by DCFH-DA staining based flow cytometry (reference value: 99.9%); type: cell-based, Canis lupus familiaris
Influenza A virus [26] = assay: Antiviral activity against Influenza A virus infected in human A549 cells assessed as reduction of viral replication at 6.25 to 100 uM incubated for 72 hrs by TCID50 method; type: functional, organism-based; details: dose 6.25-100 µM
Influenza A virus [27] = assay: Antiviral activity against Influenza A virus H1N1 infected in human A549 cells assessed as decrease in RIG-1 pathway related protein expression by measuring decrease in NF-kappaB p65 protein expression at 25 to 50 uM measured after 24 hrs by western blot analysis; type: functional, organism-based; details: dose 25-50 µM

O=[N+]([O-])c1ccc(S(=O)(=O)N(Cc2ccccc2)c2cccc3ccccc23)cc1
Activity (Influenza A virus [1]): Active | Activity (MDCK): Non-Toxic | inhibition (Influenza A virus [2]): Active | Activity (Influenza A virus [3]): 12.3% | Activity (Influenza A virus [4]): 95.3% | Activity (Influenza A virus [5]): 95.4% | inhibition (Influenza A virus [6]): Active | inhibition (Influenza A virus [7]): Active | Activity (Influenza A virus [8]): Active | Activity (Influenza A virus [9]): 95.4% | Activity (Influenza A virus [10]): 1.21% | EC50 (Influenza A virus [11]): 3.34 µM | Activity (Influenza A virus [12]): 0.81% | inhibition (Influenza A virus [13]): Active | inhibition (Influenza A virus [14]): Active | EC50 (Influenza A virus [15]): 2.28 µM | Activity (Influenza A virus [16]): 87.7% | Activity (Influenza A virus [17]): Active | EC50 (Influenza A virus [18]): 6.09 µM | inhibition in vivo at 50 mg/kg/day (Influenza A virus [19]): 28.8% | Activity (Influenza A virus [20]): Active | Activity (Influenza A virus [21]): 1.09% | inhibition (Influenza A virus [22]): Active | Activity (Influenza A virus [23]): Active | inhibition in vivo at 25 mg/kg/day (Influenza A virus [24]): 20.6% | Activity [25]: 98.6% | Activity (Influenza A virus [26]): Active | inhibition (Influenza A virus [27]): Active
